Measurements reported in the NIST ThermoML archive (doi:10.1016/j.fluid.2012.08.003).
Where “and” joins values, the source holds several entries; their conditions need not be identical. Identical values can stand only once. ± gives the expanded uncertainty stated by the source.

Conditions: Liquid, Transpiration method

CCCCCCCCOC(=O)CC [octyl propanoate]
vapor or sublimation pressure (293.3 K): 0.00465 ± 0.00023 kPa | vapor or sublimation pressure (295.7 K): 0.00575 ± 0.00029 kPa | vapor or sublimation pressure (298.4 K): 0.00732 ± 0.00037 kPa | vapor or sublimation pressure (300.3 K): 0.00883 ± 0.00044 kPa | vapor or sublimation pressure (303.3 K): 0.01129 ± 0.00057 kPa | vapor or sublimation pressure (308.3 K): 0.0173 ± 0.00087 kPa | vapor or sublimation pressure (313.4 K): 0.02656 ± 0.0013 kPa | vapor or sublimation pressure (318.5 K): 0.0387 ± 0.0019 kPa | vapor or sublimation pressure (323.4 K): 0.0541 ± 0.0027 kPa | vapor or sublimation pressure (328.5 K): 0.08043 ± 0.004 kPa | vapor or sublimation pressure (333.3 K): 0.1125 ± 0.0056 kPa | vapor or sublimation pressure (338.3 K): 0.155 ± 0.0077 kPa | vapor or sublimation pressure (340.3 K): 0.176 ± 0.0088 kPa | vapor or sublimation pressure (343 K): 0.2098 ± 0.01 kPa | vapor or sublimation pressure (346.4 K): 0.2681 ± 0.013 kPa | vapor or sublimation pressure (348.4 K): 0.2952 ± 0.015 kPa

CCCCCCOC=O [hexyl methanoate]
vapor or sublimation pressure (275.4 K): 0.07241 ± 0.0036 kPa | vapor or sublimation pressure (278.5 K): 0.09094 ± 0.0046 kPa | vapor or sublimation pressure (283.3 K): 0.1319 ± 0.0066 kPa | vapor or sublimation pressure (288.2 K): 0.1935 ± 0.0097 kPa | vapor or sublimation pressure (293.3 K): 0.2694 ± 0.014 kPa | vapor or sublimation pressure (293.4 K): 0.2753 ± 0.014 kPa | vapor or sublimation pressure (298.4 K): 0.4056 ± 0.02 kPa and 0.4085 ± 0.02 kPa | vapor or sublimation pressure (303.2 K): 0.5577 ± 0.028 kPa | vapor or sublimation pressure (303.3 K): 0.5448 ± 0.027 kPa | vapor or sublimation pressure (308.3 K): 0.7473 ± 0.037 kPa and 0.7588 ± 0.038 kPa | vapor or sublimation pressure (313.4 K): 1.016 ± 0.051 kPa and 1.013 ± 0.051 kPa

CCCCCOC(C)=O [pentyl ethanoate]
vapor or sublimation pressure (274.2 K): 0.08539 ± 0.0043 kPa | vapor or sublimation pressure (274.3 K): 0.08709 ± 0.0044 kPa | vapor or sublimation pressure (275.6 K): 0.0953 ± 0.0048 kPa and 0.09555 ± 0.0048 kPa | vapor or sublimation pressure (278.2 K): 0.1145 ± 0.0057 kPa | vapor or sublimation pressure (280.8 K): 0.1396 ± 0.007 kPa | vapor or sublimation pressure (283.2 K): 0.1683 ± 0.0084 kPa | vapor or sublimation pressure (288.2 K): 0.2413 ± 0.012 kPa | vapor or sublimation pressure (293.3 K): 0.343 ± 0.017 kPa | vapor or sublimation pressure (298.4 K): 0.4754 ± 0.024 kPa | vapor or sublimation pressure (303.3 K): 0.658 ± 0.033 kPa | vapor or sublimation pressure (306.7 K): 0.807 ± 0.04 kPa | vapor or sublimation pressure (308.2 K): 0.9035 ± 0.045 kPa | vapor or sublimation pressure (310.6 K): 1.031 ± 0.052 kPa | vapor or sublimation pressure (313.4 K): 1.219 ± 0.061 kPa

CCCCCOC(=O)CC [pentyl propanoate]
vapor or sublimation pressure (274.1 K): 0.02995 ± 0.0015 kPa | vapor or sublimation pressure (275.5 K): 0.03342 ± 0.0017 kPa | vapor or sublimation pressure (278.3 K): 0.04139 ± 0.0021 kPa | vapor or sublimation pressure (280.9 K): 0.05087 ± 0.0026 kPa | vapor or sublimation pressure (283.4 K): 0.06315 ± 0.0032 kPa | vapor or sublimation pressure (288.3 K): 0.09403 ± 0.0047 kPa | vapor or sublimation pressure (293.3 K): 0.1374 ± 0.0069 kPa | vapor or sublimation pressure (298.4 K): 0.1984 ± 0.0099 kPa | vapor or sublimation pressure (303.3 K): 0.2789 ± 0.014 kPa | vapor or sublimation pressure (308.2 K): 0.3925 ± 0.02 kPa | vapor or sublimation pressure (313.4 K): 0.5328 ± 0.027 kPa | vapor or sublimation pressure (318.5 K): 0.7195 ± 0.036 kPa | vapor or sublimation pressure (320.7 K): 0.8423 ± 0.042 kPa | vapor or sublimation pressure (323.4 K): 0.9568 ± 0.048 kPa | vapor or sublimation pressure (325.6 K): 1.098 ± 0.055 kPa | vapor or sublimation pressure (328.4 K): 1.293 ± 0.065 kPa

CCCCCCCCOC=O [octyl methanoate]
vapor or sublimation pressure (283.3 K): 0.01298 ± 0.0026 kPa | vapor or sublimation pressure (285.7 K): 0.01585 ± 0.0032 kPa | vapor or sublimation pressure (288.2 K): 0.01973 ± 0.004 kPa | vapor or sublimation pressure (290.8 K): 0.02392 ± 0.0049 kPa | vapor or sublimation pressure (293.3 K): 0.02964 ± 0.006 kPa | vapor or sublimation pressure (298.4 K): 0.04462 ± 0.0091 kPa | vapor or sublimation pressure (303.2 K): 0.0622 ± 0.013 kPa and 0.06388 ± 0.013 kPa | vapor or sublimation pressure (308.2 K): 0.09465 ± 0.019 kPa | vapor or sublimation pressure (313.5 K): 0.1368 ± 0.028 kPa | vapor or sublimation pressure (318.5 K): 0.1894 ± 0.038 kPa | vapor or sublimation pressure (323.5 K): 0.2656 ± 0.054 kPa | vapor or sublimation pressure (328.4 K): 0.3665 ± 0.074 kPa | vapor or sublimation pressure (331.3 K): 0.4318 ± 0.088 kPa | vapor or sublimation pressure (333.4 K): 0.4943 ± 0.1 kPa | vapor or sublimation pressure (335.3 K): 0.5488 ± 0.11 kPa | vapor or sublimation pressure (338.3 K): 0.6635 ± 0.13 kPa

CCCCCOC=O [pentyl methanoate]
vapor or sublimation pressure (274.2 K): 0.2283 ± 0.011 kPa | vapor or sublimation pressure (274.3 K): 0.2293 ± 0.011 kPa | vapor or sublimation pressure (275.7 K): 0.2518 ± 0.013 kPa | vapor or sublimation pressure (278.3 K): 0.3006 ± 0.015 kPa and 0.3046 ± 0.015 kPa | vapor or sublimation pressure (281 K): 0.37 ± 0.019 kPa and 0.3692 ± 0.018 kPa | vapor or sublimation pressure (283.2 K): 0.4349 ± 0.022 kPa | vapor or sublimation pressure (288.2 K): 0.61 ± 0.031 kPa | vapor or sublimation pressure (293.3 K): 0.8452 ± 0.042 kPa | vapor or sublimation pressure (298.4 K): 1.161 ± 0.058 kPa | vapor or sublimation pressure (303.3 K): 1.571 ± 0.079 kPa | vapor or sublimation pressure (305.6 K): 1.779 ± 0.089 kPa | vapor or sublimation pressure (308 K): 2.045 ± 0.1 kPa | vapor or sublimation pressure (310.7 K): 2.374 ± 0.12 kPa | vapor or sublimation pressure (313.3 K): 2.757 ± 0.14 kPa

CCCCCCOC(=O)CC [hexyl propanoate]
vapor or sublimation pressure (278.3 K): 0.01764 ± 0.00088 kPa | vapor or sublimation pressure (280.7 K): 0.0221 ± 0.0011 kPa | vapor or sublimation pressure (283.4 K): 0.02827 ± 0.0014 kPa | vapor or sublimation pressure (285.8 K): 0.03417 ± 0.0017 kPa | vapor or sublimation pressure (288.2 K): 0.04354 ± 0.0022 kPa | vapor or sublimation pressure (298.4 K): 0.09932 ± 0.005 kPa | vapor or sublimation pressure (303.2 K): 0.1369 ± 0.0069 kPa and 0.1363 ± 0.0068 kPa | vapor or sublimation pressure (308.2 K): 0.2024 ± 0.01 kPa | vapor or sublimation pressure (313.3 K): 0.2793 ± 0.014 kPa | vapor or sublimation pressure (318.5 K): 0.3993 ± 0.02 kPa | vapor or sublimation pressure (323.4 K): 0.5422 ± 0.027 kPa | vapor or sublimation pressure (326.4 K): 0.6804 ± 0.034 kPa | vapor or sublimation pressure (328.4 K): 0.7646 ± 0.038 kPa | vapor or sublimation pressure (330.6 K): 0.8602 ± 0.043 kPa | vapor or sublimation pressure (333.3 K): 0.9961 ± 0.05 kPa

CCCCCCCOC=O [heptyl methanoate]
vapor or sublimation pressure (276.1 K): 0.0215 ± 0.0011 kPa | vapor or sublimation pressure (277.6 K): 0.02468 ± 0.0012 kPa | vapor or sublimation pressure (278.6 K): 0.02656 ± 0.0013 kPa | vapor or sublimation pressure (280.4 K): 0.03187 ± 0.0016 kPa | vapor or sublimation pressure (283.3 K): 0.04168 ± 0.0021 kPa | vapor or sublimation pressure (288.3 K): 0.06125 ± 0.0031 kPa | vapor or sublimation pressure (293.2 K): 0.0889 ± 0.0044 kPa and 0.08971 ± 0.0045 kPa | vapor or sublimation pressure (293.3 K): 0.08835 ± 0.0044 kPa | vapor or sublimation pressure (298.3 K): 0.13 ± 0.0065 kPa and 0.1304 ± 0.0065 kPa | vapor or sublimation pressure (303.3 K): 0.183 ± 0.0092 kPa | vapor or sublimation pressure (308.2 K): 0.257 ± 0.013 kPa | vapor or sublimation pressure (311 K): 0.3176 ± 0.016 kPa | vapor or sublimation pressure (313.3 K): 0.3549 ± 0.018 kPa | vapor or sublimation pressure (316.4 K): 0.4359 ± 0.022 kPa
